Measurements as given in US3993749A, “Rapamycin and process of preparation” (Ayerst McKenna and Harrison Ltd., priority 1975, dated 1976).
Values after ≈ are worked out from the molar mass of the structure shown.

Experiments:
[1] = test system: bacteria; settings: prior art; cited from earlier work
[2] = test system: fungi; settings: prior art; cited from earlier work
[3] = test system: C. albicans; settings: prior art; cited from earlier work
[4] = prior art, route not given; cited from earlier work
[5] = test system: gram positive organisms; settings: prior art; cited from earlier work
[6] = test system: Candida strains; settings: prior art; cited from earlier work
[7] = test system: tumor; settings: prior art; cited from earlier work
[8] = test system: M. gypseum; assay: minimum inhibitory concentration of rapamycin; assay type: cell-based, Microsporum gypseum; settings: Nannizzia gypsea
Description: (§1) The antifungal activity of this compound is demonstrable in standard tests used for this purpose, for example, in the tests described in "Antiseptics, Disinfectants, Fungicides and Sterilization", G. F. Reddish, Ed., 2nd ed., Lea and Febiger, Philadelphia, 1957 or by D. C. Grove and W. A. Randall in "Assay Methods of Antibiotics", Med. Encycl. Inc., New York 1955.
(§2) h. the minimum inhibitory concentration of rapamycin against various microorganism is listed below: […]

[9] = test system: C. catenulata; assay: minimum inhibitory concentration of rapamycin; assay type: cell-based
Description: as §1, §2

[10] = test system: C. intermedia; assay: minimum inhibitory concentration of rapamycin; assay type: cell-based; settings: Sungouiella intermedia
Description: as §1, §2

[11] = test system: C. lipolytica; assay: minimum inhibitory concentration of rapamycin; assay type: cell-based; settings: Yarrowia lipolytica
Description: as §1, §2

[12] = test system: C. morrera; assay: minimum inhibitory concentration of rapamycin; assay type: cell-based
Description: as §1, §2

[13] = test system: C. parapsilosis; assay: minimum inhibitory concentration of rapamycin; assay type: cell-based; settings: Lodderomyces parapsilosis
Description: as §1, §2

[14] = test system: C. pseudtropicalis; assay: minimum inhibitory concentration of rapamycin; assay type: cell-based; settings: read-out: minimum inhibitory concentration
Description: as §1, §2

[15] = test system: C. stellatoidea; assay: minimum inhibitory concentration of rapamycin; assay type: cell-based; settings: Candida albicans
Description: as §1, §2

[16] = test system: C. tropicalis; assay: minimum inhibitory concentration of rapamycin; assay type: cell-based; settings: Candida tropicalis
Description: as §1, §2

[17] = test system: Candida albicans (5 strains); assay: minimum inhibitory concentration of rapamycin; assay type: cell-based; settings: against Candida albicans
Description: as §1, §2

[18] = test system: T. mentagrophytes; assay: minimum inhibitory concentration of rapamycin; assay type: cell-based; settings: Trichophyton mentagrophytes, read-out: minimum inhibitory concentration
Description: as §1, §2

[19] = LD50 in mice; settings: mouse, in vivo
[20] = test system: C. albicans ATCC 11651; assay: protection studies in mice infected with C. albicans; assay type: in vivo
Description: In protection studies, mice were infected by intravenous injection of C. albicans ATCC 11651. […] At this dose 50% of the mice were protected.

[21] = irritation, intradermal injection into a rabbit's ear; assay type: in vivo; settings: 1% suspension (0.2 ml) in water containing […] polysorbate 80, intradermal
Protocol: (§3) A 1% suspension (0.2 ml) of rapamycin in water containing 1.5% polysorbate 80 (Tween 80), when injected intradermally into a rabbit's ear caused no irritation. Similarly, two drops of a 0.5% suspension applied to a rabbit's eye caused no irritation.

[22] = irritation, drops applied to a rabbit's eye; assay type: in vivo; settings: two drops of a 0.5% suspension
Protocol: as §3

[23] = solubility; assay type: physicochemical

Compound: Proticin
- antibacterial activity [1]: antibacterial
- antifungal activity [2]: without any antifungal activity

Compound: Mycotrienin
- MIC against C. albicans [3]: 5 µg/mL
- LD50 in mice [4]: 15 mg/kg
- antifungal activity [2]: low antifungal activity

Compound: Trienine
- activity against gram positive organisms [5]: marked activity
- activity against Candida strains [6]: only marginal activity
- antitumor activity [7]: antitumor activity

Compound: Resistaphylin
- antibacterial activity [1]: antibacterial
- antifungal activity [2]: without any antifungal activity

Compound: CO[C@H]1C[C@@H]2CC[C@@H](C)[C@@](O)(O2)C(=O)C(=O)N2CCCC[C@H]2C(=O)O[C@H]([C@H](C)C[C@@H]2CC[C@@H](O)[C@H](OC)C2)CC(=O)[C@H](C)/C=C(\C)[C@@H](O)[C@@H](OC)C(=O)[C@H](C)C[C@H](C)/C=C/C=C/C=C/1C [Rapamycin, rapamycin]
- MIC [8]: 12.5 µg/mL (≈ 13.7 µM)
- MIC [9]: < 0.1 µg/mL
- MIC [10]: < 0.1 µg/mL
- MIC [11]: 2.5 µg/mL (≈ 2.73 µM)
- MIC [12]: < 0.1 µg/mL
- MIC [13]: < 0.1 µg/mL
- MIC [14]: > 5 µg/mL
- MIC [15]: < 0.1 µg/mL
- MIC [16]: 0.1 µg/mL (≈ 0.109 µM)
- inhibitory activity [17]: especially pronounced
- MIC [18]: > 1000 µg/mL
- LD50 ([19]; ip): 597 ± 28.1 mg/kg
- LD50 ([19]; po): > 2500 mg/kg
- mice survived ([20]; 10 mg/kg orally): 4 out of 10
- mice protected ([20]; 10 mg/kg s.c. at 1, 4 and 24 hours after i.v. infection): 50%
- protection ([20]; 25 mg/kg orally): complete protection
- protection ([20]; 25 mg/kg s.c.): complete protection
- irritation [21]: no irritation
- irritation [22]: no irritation
- solubility ([23]; in ether, chloroform, acetone, methanol and dimethylformamide): soluble
- solubility ([23]; in hexane and petroleum ether): very sparingly soluble
- solubility ([23]; in water): substantially insoluble
